We go through 6 molecules from patent US6878716B1, “Compounds specific to adenosine A1 receptor and uses thereof” (OSI Pharmaceuticals, Inc., priority 1998, dated 2005).

Where two headings read alike, the source gives them in different places.

Assay [1] concerns the target T1, human A2a receptor subtype (Homo sapiens, UniProt P29274).
T1 construct: expressed in transfected cells; host or cells: HEK-293 (Cadus clone # 5)
The assay is described as follows: Adenosine 2a receptor subtype competition radioligand binding ([3H]CGS-21680, HEK293 membranes). The note with it: Table 13, % value; footnote 8: % activity @ 10 μM.

Assay [2] has as its target T2, human adenosine A1 receptor (Homo sapiens, UniProt P30542).
T2 sequence (P30542 1-326): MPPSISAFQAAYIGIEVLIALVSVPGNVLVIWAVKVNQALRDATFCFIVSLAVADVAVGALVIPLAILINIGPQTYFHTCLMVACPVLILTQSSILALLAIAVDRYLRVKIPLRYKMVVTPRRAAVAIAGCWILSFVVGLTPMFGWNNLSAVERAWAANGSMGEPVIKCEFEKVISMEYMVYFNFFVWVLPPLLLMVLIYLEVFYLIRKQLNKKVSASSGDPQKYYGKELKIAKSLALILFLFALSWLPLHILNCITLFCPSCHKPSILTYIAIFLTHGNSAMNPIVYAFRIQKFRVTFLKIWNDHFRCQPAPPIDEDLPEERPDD
The assay is described as follows: Yeast β-Galactosidase reporter gene assay, inhibition of NECA-induced activity (strain CY12660).

In assay [3] the target is T3, human A1 receptor subtype (Homo sapiens, UniProt P30542).
T3 sequence (P30542 1-326): T2 sequence (P30542 1-326)
The note with it: Table 13, % value; footnote 8: % activity @ 10 μM.

The target in the next assay is T4, A1 adenosine receptor (Homo sapiens, UniProt P30542).
T4 sequence (P30542 1-326): T2 sequence (P30542 1-326)
As to conditions: reported value; cited from earlier work.

Assay [4] deals with T3, human A1 receptor subtype. Kind of assay: biochemical.
The mark [5] stands for this setting: read-out: A1 Yeast IC50, Table 10.

T1 sequence (P29274 whole entry): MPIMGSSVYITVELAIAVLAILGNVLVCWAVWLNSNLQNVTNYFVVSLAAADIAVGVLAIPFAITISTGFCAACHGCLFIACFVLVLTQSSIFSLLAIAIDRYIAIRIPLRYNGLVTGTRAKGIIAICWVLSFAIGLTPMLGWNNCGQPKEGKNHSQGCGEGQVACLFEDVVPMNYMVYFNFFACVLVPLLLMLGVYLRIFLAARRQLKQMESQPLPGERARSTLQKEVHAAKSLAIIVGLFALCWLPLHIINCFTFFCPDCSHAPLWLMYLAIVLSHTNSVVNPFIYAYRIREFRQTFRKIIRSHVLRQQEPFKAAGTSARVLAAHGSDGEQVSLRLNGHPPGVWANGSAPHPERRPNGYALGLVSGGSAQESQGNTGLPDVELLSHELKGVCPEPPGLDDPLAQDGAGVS

As to `CNC(=O)NCCCNc1nc(-c2ccccc2)nc2[nH]c(C)c(C)c12` [Compound 1310], the A2a % activity in assay [1] amounted to 76%.
As to `Cc1[nH]c2nc(-c3ccccc3)nc(NCCNS(C)(=O)=O)c2c1C` [Compound 1007], the 50% inhibitory concentration (IC50) in assay [2] (setting [5]) was above 10 µM.
`Cc1[nH]c2nc(-c3ccccc3)nc(NCCNC(=O)C3(N)CC3)c2c1C` [Compound 1313]: the A2a % activity in assay [1] is reported as 65%. Also, the A1 % activity in assay [3] is listed as 30%.
On to `C[C@H](Cc1ccccc1)Nc1ncnc2c1ncn2[C@@H]1O[C@H](CO)[C@@H](O)[C@H]1O` (single isomer, unassigned) [R-PIA, (−)-N6-(2-phenylisopropyl)-adenosine], for which, on A1 adenosine receptor, the “affinity (reported)” value is reported as “approximately 50 nM”.
For the molecule `CCC(=O)NCCCNc1nc(-c2ccccc2)nc2[nH]c(C)c(C)c12` [Compound 1012], the Ki in assay [4] came out at 0.234 µM. This molecule also gave an IC50 in assay [2] of 3.46 µM.
For `Cc1[nH]c2nc(-c3ccccc3)nc(NCCNC(=O)CCN)c2c1C` [Compound 1009], the IC50 in assay [2] (setting [5]) was above 10 µM.
